In brackets after ≈: the same amount, converted by molar mass.
How the values were obtained:
[1] = Hydrolysis kinetics in buffers at 37° C., 4 μg/ml (LC-MS, Method 8); type: physicochemical
Experimental: (§1) Method 8: Hydrolysis Kinetics in Buffers or Plasma Samples at 37° C., 4 μg/ml (Table 9)
(§2) Test compounds were prepared in DMSO at 0.8 mg/ml (relative to the acid AF1). To obtain a concentration of 4 μg/ml, one microliter of test compounds or AF1 was dissolved in 199 μl of buffer or blank plasma. For test compounds, plasma samples and/or buffer samples were kept at 37° C. during 2 h, and 20 μL of mixture were collected at 0 minutes (before heating to 37° C.), 5 minutes, 10 minutes, 20 minutes, 30 minutes, 45 minutes, 60 minutes and 120 minutes. For AF1, 20 μl of plasma samples and/or buffer samples were collected at 0 minutes. All plasma samples were protein precipitated using 3-25 fold volume of acetonitrile, shaken and centrifuged for 20 minutes at 15 000×g, diluted with a varying volume of deionized water. All buffer samples were diluted with a varying volume of deionized water/acetonitrile. The formation of AF1 from test compounds was quantified using LC-MS/MS.

[2] = Hydrolysis kinetics in buffers at room temperature by 19F-NMR, 1 mg/ml (Method 9); type: physicochemical
Experimental: Method 9: Hydrolysis Kinetics in Buffers at Room Temperature by ^19F-NMR, 1 mg/ml (Table 9)
Samples were prepared by solubilizing the ester compound (1 mg) in 900 μL of D2O and 100 μL of adequate buffer (Citrate 100 mM pH 5, Phosphate 100 mM pH 6 and Phosphate 100 mM pH 7.4). After a short sonication to fasten solubilization, the hydrolysis curve of the esters was generated by measuring and comparing the ^19F-NMR signal integrations of both species (ester compound disappearing and the acid form AF1 appearing). T10 and T50, times for respectively 10% and 50% of ester hydrolysis, were determined by interpolation of the hydrolysis curves.

[3] = Aqueous solubility by visual inspection (Method 12); details: for solubility: water, thermodynamic from solid
in vitro = in vitro ADME; details: plasma
Experimental: as §1, §2

With `COCC(COC)OC(=O)C(F)(F)ON1C(=O)N2C[C@H]1CC[C@H]2C(N)=O` [Example 13, [2-methoxy-1-(methoxymethyl)ethyl]2-[[(2S,5R)-2-carbamoyl-7-oxo-1,6-diazabicyclo[3.2.1]octan-6-yl]oxy]-2,2-difluoro-acetate] the “Hydrolysis at 4 μg/ml at 37° C. (LC-MS) T50 (50% degradation time)” value (from here on “Hydrolysis at 4 μg/ml … (50% degradation time)”) ([1]; Citrate 10 mM pH 5.0) was <1 min, the “Hydrolysis at 4 μg/ml … (50% degradation time)” value ([1]; Phosphate 10 mM pH 6.0) was <1 min and the “Hydrolysis at 4 μg/ml … (50% degradation time)” value ([1]; Phosphate 10 mM pH 7.4) was <1 min. The “Hydrolysis at 1 mg/ml at room Temperature (NMR) T10 (10% degradation time)” value (shortened to “Hydrolysis at 1 mg/ml … (10% degradation time)”) ([2]; Citrate 10 mM pH 5.0) was 8 min, the “Hydrolysis at 1 mg/ml at room Temperature (NMR) T50 (50% degradation time)” value (“Hydrolysis at 1 mg/ml … (50% degradation time)” for short) ([2]; Citrate 10 mM pH 5.0) was 0.933 h and the solubility [3] was > 1000 µg/mL.
In the case of `CC1(OC(=O)C(F)(F)ON2C(=O)N3C[C@H]2CC[C@H]3C(N)=O)CCOCC1` [Example 8, (4-methyltetrahydropyran-4-yl) 2-[[(2S,5R)-2-carbamoyl-7-oxo-1,6-diazabicyclo[3.2.1]octan-6-yl]oxy]-2,2-difluoro-acetate], the “Hydrolysis at 4 μg/ml … (50% degradation time)” value ([1]; Citrate 10 mM pH 5.0) is reported as >120 min, the “Hydrolysis at 4 μg/ml … (50% degradation time)” value ([1]; Phosphate 10 mM pH 7.4) is reported as 39 min and the half-life at 4 µg/ml (in vitro; dog) is reported as 8 min. For the same molecule, the half-life at 4 µg/ml (in vitro; human) was 11 min, the half-life at 4 µg/ml (in vitro; mouse) was < 1 min and the half-life at 4 µg/ml (in vitro; rat) was < 1 min. The “Hydrolysis at 1 mg/ml … (10% degradation time)” value ([2]; Citrate 10 mM pH 5.0) was 402 min, the “Hydrolysis at 1 mg/ml … (50% degradation time)” value ([2]; Citrate 10 mM pH 5.0) was 43 h and the “Hydrolysis at 1 mg/ml … (10% degradation time)” value ([2]; Phosphate 10 mM pH 6.0) was 162 min. The “Hydrolysis at 1 mg/ml … (50% degradation time)” value ([2]; Phosphate 10 mM pH 6.0) was 21 h, the “Hydrolysis at 1 mg/ml … (10% degradation time)” value ([2]; Phosphate 10 mM pH 7.4) was 40 min and the “Hydrolysis at 1 mg/ml … (50% degradation time)” value ([2]; Phosphate 10 mM pH 7.4) was 4.5 h. It also gave a solubility [3] of 1000 µg/mL (≈ 2.65 mM).
For `COCC(C)(COC)OC(=O)C(F)(F)ON1C(=O)N2C[C@H]1CC[C@H]2C(N)=O` [Example 10, [2-methoxy-1-(methoxymethyl)-1-methyl-ethyl]2-[[(2S,5R)-2-carbamoyl-7-oxo-1,6-diazabicyclo[3.2.1]octan-6-yl]oxy]-2,2-difluoro-acetate], the “Hydrolysis at 1 mg/ml … (10% degradation time)” value ([2]; Citrate 10 mM pH 5.0) was 210 min, the “Hydrolysis at 1 mg/ml … (50% degradation time)” value ([2]; Citrate 10 mM pH 5.0) was 32 h and the “Hydrolysis at 1 mg/ml … (10% degradation time)” value ([2]; Phosphate 10 mM pH 6.0) was 90 min. For the same molecule, the “Hydrolysis at 1 mg/ml … (50% degradation time)” value ([2]; Phosphate 10 mM pH 6.0) was 16 h, the “Hydrolysis at 1 mg/ml … (10% degradation time)” value ([2]; Phosphate 10 mM pH 7.4) was 12 min and the “Hydrolysis at 1 mg/ml … (50% degradation time)” value ([2]; Phosphate 10 mM pH 7.4) was 1 h. For the same molecule, the solubility [3] was 4500 µg/mL (≈ 11.4 mM).
For `CCCN(CCC)[C@H]1CC[C@H](OC(=O)C(F)(F)ON2C(=O)N3C[C@H]2CC[C@H]3C(N)=O)CC1` [Example 15, [4-(dipropylamino)cyclohexyl]2-[[(2S,5R)-2-carbamoyl-7-oxo-1,6-diazabicyclo[3.2.1]octan-6-yl]oxy]-2,2-difluoro-acetate], the “Hydrolysis at 4 μg/ml … (50% degradation time)” value ([1]; Citrate 10 mM pH 5.0) was <1 min, the “Hydrolysis at 4 μg/ml … (50% degradation time)” value ([1]; Phosphate 10 mM pH 6.0) was <1 min and the “Hydrolysis at 4 μg/ml … (50% degradation time)” value ([1]; Phosphate 10 mM pH 7.4) was <1 min. For the same molecule, the “Hydrolysis at 1 mg/ml … (10% degradation time)” value ([2]; Citrate 10 mM pH 5.0) was 7 min, the “Hydrolysis at 1 mg/ml … (50% degradation time)” value ([2]; Citrate 10 mM pH 5.0) was 0.567 h and the solubility [3] was > 1000 µg/mL.
In the case of `COCC1(OC(=O)C(F)(F)ON2C(=O)N3C[C@H]2CC[C@H]3C(N)=O)CCOCC1` [Example 11, [4-(methoxymethyl)tetrahydropyran-4-yl]2-[[(2S,5R)-2-carbamoyl-7-oxo-1,6-diazabicyclo[3.2.1]octan-6-yl]oxy]-2,2-difluoro-acetate], the “Hydrolysis at 1 mg/ml … (10% degradation time)” value ([2]; Citrate 10 mM pH 5.0) is reported as 372 min, the “Hydrolysis at 1 mg/ml … (50% degradation time)” value ([2]; Citrate 10 mM pH 5.0) is reported as >41 h and the “Hydrolysis at 1 mg/ml … (10% degradation time)” value ([2]; Phosphate 10 mM pH 6.0) is reported as 120 min. The “Hydrolysis at 1 mg/ml … (50% degradation time)” value ([2]; Phosphate 10 mM pH 6.0) was 16 h, the “Hydrolysis at 1 mg/ml … (10% degradation time)” value ([2]; Phosphate 10 mM pH 7.4) was 15 min and the “Hydrolysis at 1 mg/ml … (50% degradation time)” value ([2]; Phosphate 10 mM pH 7.4) was 1.3 h. It also gave a solubility [3] of 1300 µg/mL (≈ 3.19 mM).
In the case of `COCC(C)(C)OC(=O)C(F)(F)ON1C(=O)N2C[C@H]1CC[C@H]2C(N)=O` [Example 7, (2-methoxy-1,1-dimethyl-ethyl) 2-[[(2S,5R)-2-carbamoyl-7-oxo-1,6-diazabicyclo[3.2.1]octan-6-yl]oxy]-2,2-difluoro-acetate], the “Hydrolysis at 4 μg/ml … (50% degradation time)” value ([1]; Citrate 10 mM pH 5.0) is reported as 109 min, the “Hydrolysis at 4 μg/ml … (50% degradation time)” value ([1]; Phosphate 10 mM pH 7.4) is reported as 23 min and the half-life at 4 µg/ml (in vitro; dog) is reported as 4 min. The half-life at 4 µg/ml (in vitro; human) was 7 min, the half-life at 4 µg/ml (in vitro; mouse) was < 1 min and the half-life at 4 µg/ml (in vitro; rat) was < 1 min. For the same molecule, the “Hydrolysis at 1 mg/ml … (10% degradation time)” value ([2]; Citrate 10 mM pH 5.0) was 210 min, the “Hydrolysis at 1 mg/ml … (50% degradation time)” value ([2]; Citrate 10 mM pH 5.0) was 27 h and the “Hydrolysis at 1 mg/ml … (10% degradation time)” value ([2]; Phosphate 10 mM pH 6.0) was 120 min. The “Hydrolysis at 1 mg/ml … (50% degradation time)” value ([2]; Phosphate 10 mM pH 6.0) was 20 h, the “Hydrolysis at 1 mg/ml … (10% degradation time)” value ([2]; Phosphate 10 mM pH 7.4) was 37 min and the “Hydrolysis at 1 mg/ml … (50% degradation time)” value ([2]; Phosphate 10 mM pH 7.4) was 3.2 h. For the same molecule, the solubility [3] was 6000 µg/mL (≈ 16.4 mM).
In the case of `CCOC(=O)C(F)(F)ON1C(=O)N2C[C@H]1CC[C@H]2C(N)=O` [AF1-Et], the “Hydrolysis at 4 μg/ml … (50% degradation time)” value ([1]; Citrate 10 mM pH 5.0) is reported as <1 min, the “Hydrolysis at 4 μg/ml … (50% degradation time)” value ([1]; Phosphate 10 mM pH 6.0) is reported as <1 min and the “Hydrolysis at 4 μg/ml … (50% degradation time)” value ([1]; Phosphate 10 mM pH 7.4) is reported as <1 min. The “Hydrolysis at 1 mg/ml … (10% degradation time)” value ([2]; Citrate 10 mM pH 5.0) was 9 min, the “Hydrolysis at 1 mg/ml … (50% degradation time)” value ([2]; Citrate 10 mM pH 5.0) was 1 h and the solubility [3] was > 1000 µg/mL.
For `NC(=O)[C@@H]1CC[C@@H]2CN1C(=O)N2OC(F)(F)C(=O)OC1C2CC3CC(C2)CC1C3` (stereo partly drawn) [Example 3, 2-adamantyl 2-[[(2S,5R)-2-carbamoyl-7-oxo-1,6-diazabicyclo[3.2.1]octan-6-yl]oxy]-2,2-difluoro-acetate], the “Aqueous Solubility at room temperature in H2O” value ([3]; room temperature, H2O, visual inspection) was “Low solubility”.
With `NC(=O)[C@@H]1CC[C@@H]2CN1C(=O)N2OC(F)(F)C(=O)OC1CCOCC1` [Example 12, tetrahydropyran-4-yl 2-[[(2S,5R)-2-carbamoyl-7-oxo-1,6-diazabicyclo[3.2.1]octan-6-yl]oxy]-2,2-difluoro-acetate] the “Hydrolysis at 4 μg/ml … (50% degradation time)” value ([1]; Citrate 10 mM pH 5.0) was <1 min, the “Hydrolysis at 4 μg/ml … (50% degradation time)” value ([1]; Phosphate 10 mM pH 6.0) was <1 min and the “Hydrolysis at 4 μg/ml … (50% degradation time)” value ([1]; Phosphate 10 mM pH 7.4) was <1 min. The “Hydrolysis at 1 mg/ml … (10% degradation time)” value ([2]; Citrate 10 mM pH 5.0) was 15 min, the “Hydrolysis at 1 mg/ml … (50% degradation time)” value ([2]; Citrate 10 mM pH 5.0) was 1.3 h and the solubility [3] was 500 to 1000 µg/mL (≈ 1.38 to 2.75 mM).
For `COCCOCC(C)(C)OC(=O)C(F)(F)ON1C(=O)N2C[C@H]1CC[C@H]2C(N)=O` [Example 9], the “Hydrolysis at 1 mg/ml … (10% degradation time)” value ([2]; Citrate 10 mM pH 5.0) was 192 min, the “Hydrolysis at 1 mg/ml … (50% degradation time)” value ([2]; Citrate 10 mM pH 5.0) was 20 h and the “Hydrolysis at 1 mg/ml … (10% degradation time)” value ([2]; Phosphate 10 mM pH 6.0) was 138 min. The “Hydrolysis at 1 mg/ml … (50% degradation time)” value ([2]; Phosphate 10 mM pH 6.0) was 17 h, the “Hydrolysis at 1 mg/ml … (10% degradation time)” value ([2]; Phosphate 10 mM pH 7.4) was 21 min and the “Hydrolysis at 1 mg/ml … (50% degradation time)” value ([2]; Phosphate 10 mM pH 7.4) was 2.6 h. The solubility [3] was 6900 µg/mL (≈ 16.9 mM).
For `COCCCC(C)(C)OC(=O)C(F)(F)ON1C(=O)N2C[C@H]1CC[C@H]2C(N)=O` [Example 14, (4-methoxy-1,1-dimethyl-butyl) 2-[[(2S,5R)-2-carbamoyl-7-oxo-1,6-diazabicyclo[3.2.1]octan-6-yl]oxy]-2,2-difluoro-acetate], the “Hydrolysis at 4 μg/ml … (50% degradation time)” value ([1]; Citrate 10 mM pH 5.0) was <5 min, the “Hydrolysis at 4 μg/ml … (50% degradation time)” value ([1]; Phosphate 10 mM pH 6.0) was <5 min and the “Hydrolysis at 4 μg/ml … (50% degradation time)” value ([1]; Phosphate 10 mM pH 7.4) was <5 min. The “Hydrolysis at 1 mg/ml … (10% degradation time)” value ([2]; Citrate 10 mM pH 5.0) was 5 min, the “Hydrolysis at 1 mg/ml … (50% degradation time)” value ([2]; Citrate 10 mM pH 5.0) was 0.45 h and the “Hydrolysis at 1 mg/ml … (10% degradation time)” value ([2]; Phosphate 10 mM pH 6.0) was <25 min. The “Hydrolysis at 1 mg/ml … (50% degradation time)” value ([2]; Phosphate 10 mM pH 6.0) was <2 h, the “Hydrolysis at 1 mg/ml … (10% degradation time)” value ([2]; Phosphate 10 mM pH 7.4) was 7 min and the “Hydrolysis at 1 mg/ml … (50% degradation time)” value ([2]; Phosphate 10 mM pH 7.4) was 0.567 h. For the same molecule, the solubility [3] was 5100 µg/mL (≈ 13 mM).

Reference: US20200017496A1 (priority 2017, published 2020)
